In patent US20230123334A1, “AMINO LIPID COMPOUND, PREPARATION METHOD THEREFOR, AND APPLICATION THEREOF” (SHENZHEN SHENXIN BIOTECHNOLOGY CO., LTD., priority 2020, published 2023):

What was measured:
Format in all cases: cell-based
Hela cells [1] = experiment: Transfection of Hela cell line, mRNA vectors; details: 50 ng EGFP mRNA per well
Procedure: (§1) Cell line: Hela cells (ATCC 35241)
(§2) Medium: DMEM supplemented with 10% fetal bovine serum (Invitrogen)
(§3) Screening: cell transfection on 96-well plates
Detection (readout): percentage of the number of GFP fluorescent cells relative to the total number of cells (the total number of cells was determined using nucleus dye Hoechst). A commercially available liposome transfection reagent Lipofectamine2000 (Invitrogen) was used as the positive control group, according to the manufacturer's instructions.
Method: the experimental method was basically the same with Example 4, and the mass of EGFP mRNA for transfection was 50 ng per well.

HEK293 cells [2] = experiment: Preliminary screening as DNA vectors, GFP transfection of HEK293 cells; details: HEK293 cells; lipid/DOPE liposome with 75 ng plasmid DNA (psin-EGFP-IRES-Puro); number of cells expressing GFP divided by total number of nuclei (Hoechst)
How it was run: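 HEK293 cells in DMEM/10% FBS transfected with 75 ng EGFP plasmid per well complexed with amino lipid/DOPE liposomes in pH 5.6 sodium acetate. Hoechst nuclear stain added 20-24 h post-transfection, then cells cultured another 20-24 h. Confocal imaging gives GFP-positive cells as % of total nuclei.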

HEK293 cells [3] = experiment: Preliminary screening as mRNA vectors, EGFP mRNA transfection of HEK293 cells; details: HEK293 cells, 96-well plates, EGFP mRNA 50 ng per well; percentage of GFP fluorescent cells relative to total number of cells (Hoechst)
How it was run: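 HEK293 cells in DMEM plus 10% FBS transfected in 96-well format with 50 ng EGFP mRNA per well; Lipofectamine2000 served as positive control. Read-out is the percentage of GFP-fluorescent cells among total cells, counted by Hoechst nuclear stain.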

Hela cells [4] = experiment: Transfection of Hela cell line, DNA vectors; details: 75 ng plasmid DNA, GFP cells / total cells
Procedure: 1. The compound (0.01 mmol) prepared in Example 1 was dissolved in 1 mL of anhydrous ethanol. After ultrasonically dissolved, 10 μL of the resultant amino lipid solution in ethanol was taken and mixed with 5 μL of DOPE solution in ethanol (0.01 m), and then to the obtained mixture was added 35 μL of 0.2M sodium acetate buffer (pH 5.6), and 50 μL of liposome solution was prepared by vortex at a constant rotating speed for 30 s. 4 μL was taken from the 50 μL liposome solution and added to 46 μL of 0.02M sodium acetate buffer (pH 5.6), and the final liposome solution was formed by vortex at a constant rotating speed for 30 s. 5 μL was taken from the final liposome solution and mixed with 75 ng plasmid DNA (psin-EGFP-IRES-Puro, Clontech) dissolved in 5 μL of 0.02 M sodium acetate buffer, and was allowed to stay at room temperature for 30 min to form a lipid/DNA transfection complex.
2. 10 μL of the lipid/DNA transfection complex was incubated at room temperature for 30 min, followed by addition of 90 μL of fresh resuspended cells (3-5×10^4 cells) and mixing with a pipette. 100 μL of cells+lipid/DNA complex was transferred to separate wells of a 96-well culture plate immediately, and placed in an incubator containing 5% CO2 at 37° C.
3. Hoechst33258 (Invitrogen) was added at a final concentration of 0.2 μg/mL to the cells 20 to 24 hours after initial cell transfection, and cultured in darkness at 37° C. for 15 min. Afterwards, the cells were washed once with a PBS solution, and then added with medium for culture for 20 to 24 h.
4. The cells were placed in a high-throughput confocal microscope (Molecular Devices ImageXpress), and four visual fields of the image of the cells were captured for each well, and images at three laser wavelengths were captured for each sample: bright field images of cells (FIG. 2(a) and FIG. 2(b)), Hoechst-staining images showing total nuclei (FIG. 2(c) and FIG. 2(d)) and GFP images showing success in transfection with the plasmid DNA and the expression of GFP (FIG. 2(e) and FIG. 2(f)). MetaXpress software was used to separately count the cells in the Hoechst-staining images and GFP images, and then the number of cells expressing GFP was divided by the total number of nuclei to give the absolute cell transfection efficiency. The absolute transfection efficiency was calculated as follows: […]
as §1, §2, §3
Detection (readout): percentage of the number of GFP fluorescent cells relative to the total number of cells (the total number of cells was determined using nucleus dye Hoechst). Lipofectamine2000 (Invitrogen) was used as the positive control, according to the manufacturer's instructions.
Method: the experimental method was basically the same with Example 4.

| Compound | Absolute mRNA transfection efficiency in Hela cells (Hela cells [1]) | Absolute DNA transfection efficiency in HEK293 cells (HEK293 cells [2]) | Absolute mRNA transfection efficiency in HEK293 cells (HEK293 cells [3]) | Absolute DNA transfection efficiency in Hela cells (Hela cells [4]) |
| --- | --- | --- | --- | --- |
| CCCCCCCCCCCCSc1nc(NCCN2CCOCC2)nc(SCCCCCCCCC)n1 [Compound S9S12D2] | 8.5% | 16.7% | 0.0% | 8.5% |
| CCCCCCCCCCCCCCCSc1nc(NCCN(CC)CC)nc(SCCCCCCCCC)n1 [Compound S9S15D7] | 2.8% | 5.0% | 1.2% | 2.8% |
| CCCCCCCCCCCCCCSc1nc(NCCN(CC)CC)nc(SCCCCCCCCC)n1 [Compound S9S14D7] | 6.2% | 12.5% | 1.5% | 6.5% |
| CCCCCCCCCCCCCCCSc1nc(NCCN(C)C)nc(SCCCCCCCCC)n1 [Compound S9S15D1] | 1.3% | 2.1% | 0.0% | 1.3% |
| CCCCCCCCCCCSc1nc(NCCN2CCCCC2)nc(SCCCCCCCC)n1 [Compound S8S11D4] | 4.5% |  |  | 4.5% |
| CCCCCCCCCCCCCCSc1nc(NCCN(C)C)nc(SCCCCCCCCC)n1 [Compound S9S14D1] | 1.4% | 2.1% | 1.6% | 1.4% |
| CCCCCCCCCCCSc1nc(NCCN(C)C)nc(SCCCCCCC)n1 [Compound S7S11D1] | 5.9% |  |  | 5.9% |
| CCCCCCCCCCCCCCCCSc1nc(NCCN(CC)CC)nc(SCCCCCCCCC)n1 [Compound S9S16D7] | 4.2% | 8.4% | 1.8% | 4.2% |
| CCCCCCCCCCCCNc1nc(NCCN2CCOCC2)nc(SCCCCCCCC)n1 [Compound S8N12D2] | 19.3% |  |  | 19.3% |
| CCCCCCCCCCCCCCCSc1nc(NCCN2CCOCC2)nc(SCCCCCCCCC)n1 [Compound S9S15D2] | 5.9% | 10.6% | 0.0% | 5.9% |
| CCCCCCCCCCCCSc1nc(NCCN2CCOCC2)nc(SCCCCCCC)n1 [Compound S7S12D2] | 9.2% |  |  | 9.2% |
| CCCCCCCCCCCNc1nc(NCCN(CC)CC)nc(SCCCCCCCCC)n1 [Compound S9N11D7] | 7.8% |  |  | 7.8% |
